Source: US12077503B2, “Substituted cyclic amides and their use as herbicides” (FMC CORPORATION, priority 2015, dated 2024)

Tests used:
Assay type in all cases: in vivo
[1] = test system: barnyardgrass (Echinochloa crus-galli); assay: Test A preemergence; details: Preemergence; for Plant response rating, Barnyardgrass: 125 g ai/ha, visual injury after approximately 10 d, 0 to 100 scale where 0 is no effect and 100 is complete control; for Barnyardgrass plant response rating (0 to 100 scale, 0 is no effect, 100 is complete control): 500 g ai/ha, visual injury approx. 10 d
Excerpt: (§1) Seeds of plant species selected from barnyardgrass (Echinochloa crus-galli), Kochia (Kochia scoparia), ragweed (common ragweed, Ambrosia elatior), ryegrass, Italian (Italian ryegrass, Lolium multiflorum), crabgrass, large (Digitaria sanguinalis), giant foxtail (Setaria faberii), green foxtail (Setaria viridis), morningglory (Ipomoea spp.), pigweed (Amaranthus retroflexus), velvetleaf (Abutilon theophrasti), wheat (Triticum aestivum), and corn (Zea mays) were planted into a blend of loam soil and sand and treated preemergence with a directed soil spray using test chemicals formulated in anon-phytotoxic solvent mixture which included a surfactant.
(§2) At the same time, plants selected from these crop and weed species and also blackgrass (Alopecurus myosuroides), and Galium (catchweed bedstraw, Galium aparine) were planted in pots containing the same blend of loam soil and sand and treated with postemergence applications of test chemicals formulated in the same manner. Plants ranged in height from 2 to 10 cm and were in the one- to two-leaf stage for the postemergence treatment. Treated plants and untreated controls were maintained in a greenhouse for approximately 10 d, after which time all treated plants were compared to untreated controls and visually evaluated for injury. Plant response ratings, summarized in Table A, are based on a 0 to 100 scale where 0 is no effect and 100 is complete control. A dash (-) response means no test result.

Kochia (Kochia scoparia) [2] = assay: Test A preemergence; details: Preemergence; for Plant response rating, Kochia: 125 g ai/ha, visual injury after approximately 10 d, 0 to 100 scale where 0 is no effect and 100 is complete control; for Kochia plant response rating (0 to 100 scale, 0 is no effect, 100 is complete control): 500 g ai/ha, visual injury approx. 10 d
Excerpt: as §1, §2

[3] = test system: ryegrass, Italian (Italian ryegrass, Lolium multiflorum); assay: Test A preemergence; details: Preemergence; for Plant response rating, Ryegrass, Italian: 125 g ai/ha, visual injury after approximately 10 d, 0 to 100 scale where 0 is no effect and 100 is complete control; for Ryegrass, Italian plant response rating (0 to 100 scale, 0 is no effect, 100 is complete control): 500 g ai/ha, visual injury approx. 10 d
Excerpt: as §1, §2

[4] = test system: pigweed (Amaranthus retroflexus); assay: Test A preemergence; details: Preemergence; for Plant response rating, Pigweed: 125 g ai/ha, visual injury after approximately 10 d, 0 to 100 scale where 0 is no effect and 100 is complete control; for Pigweed plant response rating (0 to 100 scale, 0 is no effect, 100 is complete control): 500 g ai/ha, visual injury approx. 10 d
Excerpt: as §1, §2

[5] = test system: ragweed (common ragweed, Ambrosia elatior); assay: Test A preemergence; details: Preemergence; for Plant response rating, Ragweed: 125 g ai/ha, visual injury after approximately 10 d, 0 to 100 scale where 0 is no effect and 100 is complete control; for Ragweed plant response rating (0 to 100 scale, 0 is no effect, 100 is complete control): 500 g ai/ha, visual injury approx. 10 d
Excerpt: as §1, §2

[6] = test system: giant foxtail (Setaria faberii); assay: Test A preemergence; details: Preemergence; for Plant response rating, Foxtail, Giant: 125 g ai/ha, visual injury after approximately 10 d, 0 to 100 scale where 0 is no effect and 100 is complete control; for Foxtail, Giant plant response rating (0 to 100 scale, 0 is no effect, 100 is complete control): 500 g ai/ha, visual injury approx. 10 d
Excerpt: as §1, §2

[7] = test system: barnyardgrass (Echinochloa crus-galli); assay: Test A postemergence
Excerpt: as §1, §2

Kochia (Kochia scoparia) [8] = assay: Test A postemergence
Excerpt: as §1, §2

[9] = test system: Galium (catchweed bedstraw, Galium aparine); assay: Test A postemergence
Excerpt: as §1, §2

[10] = test system: ryegrass, Italian (Italian ryegrass, Lolium multiflorum); assay: Test A postemergence
Excerpt: as §1, §2

[11] = test system: pigweed (Amaranthus retroflexus); assay: Test A postemergence
Excerpt: as §1, §2

[12] = test system: wheat (Triticum aestivum); assay: Test A postemergence
Excerpt: as §1, §2

[13] = test system: ragweed (common ragweed, Ambrosia elatior); assay: Test A postemergence
Excerpt: as §1, §2

[14] = test system: blackgrass (Alopecurus myosuroides); assay: Test A postemergence
Excerpt: as §1, §2

corn (Zea mays) = assay: Test A postemergence
Excerpt: as §1, §2

[15] = test system: giant foxtail (Setaria faberii); assay: Test A postemergence
Excerpt: as §1, §2

[16] = 125 g ai/ha, postemergence, visual rating after approx. 10 d, 0 to 100 scale (0 no effect, 100 complete control)
[17] = Postemergence, 500 g ai/ha, 0 to 100 scale where 0 is no effect and 100 is complete control
[18] = 125 g ai/ha, postemergence, visual injury rating on 0 to 100 scale (0 no effect, 100 complete control), approx. 10 d

Structure (SMILES) | Plant response rating, Barnyardgrass [1] | Barnyardgrass plant response rating (0 to 100 scale, 0 is no effect, 100 is complete control) [1] | Plant response rating, Kochia (Kochia (Kochia scoparia) [2]) | Kochia plant response rating (0 to 100 scale, 0 is no effect, 100 is complete control) (Kochia (Kochia scoparia) [2]) | Plant response rating, Ryegrass, Italian [3] | Ryegrass, Italian plant response rating (0 to 100 scale, 0 is no effect, 100 is complete control) [3] | Plant response rating, Pigweed [4] | Pigweed plant response rating (0 to 100 scale, 0 is no effect, 100 is complete control) [4] | Plant response rating, Ragweed [5] | Ragweed plant response rating (0 to 100 scale, 0 is no effect, 100 is complete control) [5] | Plant response rating, Foxtail, Giant [6] | Foxtail, Giant plant response rating (0 to 100 scale, 0 is no effect, 100 is complete control) [6] | Plant response rating, Barnyardgrass [7, 17] | Plant response rating, Kochia (Kochia (Kochia scoparia) [8]; [17]) | Plant response rating, Galium [9, 17] | Plant response rating, Ryegrass, Italian [10, 17] | Plant response rating, Pigweed [11, 17] | Plant response rating, Wheat [12, 17] | Plant response rating, Ragweed [13, 17] | Plant response rating, Blackgrass [14, 17] | also measured
CCc1cccc(C2CN(C)C(=O)C2C(=O)Nc2cccc(F)c2F)c1 (stereo not shown) [Compound 568] | 90 | 100 | 70 | 80 | 70 | 100 | 30 | 60 | 20 | 50 | 100 | 100 | 100 | 70 | 60 | 90 | 60 | 70 | 30 | 90 | Plant response rating, Barnyardgrass [7, 16]: 100; Plant response rating, Kochia (Kochia (Kochia scoparia) [8]; [16]): 70; Plant response rating, Galium [9, 16]: 60; Plant response rating, Ryegrass, Italian [10, 16]: 70; Plant response rating, Pigweed [11, 16]: 30; Plant response rating, Wheat [12, 16]: 30; Plant response rating, Ragweed [13, 16]: 30; Plant response rating, Blackgrass [14, 16]: 60; Plant response rating, Corn (corn (Zea mays); [16]): 60; Plant response rating, Corn (corn (Zea mays); [17]): 90; Plant response rating, Foxtail, Giant [15, 16]: 90; Plant response rating, Foxtail, Giant [15, 17]: 90
O=C1NCC(c2cc(Br)cs2)C1C(=O)Nc1cccc(F)c1F (racemic) [Compound 510] | 60 | 80 | 30 | 50 | 0 | 10 | 0 | 0 | 30 | 50 | 60 | 70 | 70 | 40 | 0 | 20 | 0 | 0 | 30 | 40 | Barnyardgrass plant response rating [7, 18]: 60; Kochia plant response rating (Kochia (Kochia scoparia) [8]; [18]): 0; Galium plant response rating [9, 18]: 0; Ryegrass, Italian plant response rating [10, 18]: 0; Pigweed plant response rating [11, 18]: 0; Wheat plant response rating [12, 18]: 0; Ragweed plant response rating [13, 18]: 0; Blackgrass plant response rating [14, 18]: 0; Corn plant response rating (corn (Zea mays); [18]): 0; Plant response rating, Corn (corn (Zea mays); [17]): 0; Foxtail, Giant plant response rating [15, 18]: 10; Plant response rating, Foxtail, Giant [15, 17]: 30
O=C1NCC(c2ccc(OC(F)F)cc2)C1C(=O)Nc1cccc(F)c1F (stereo not shown) [Compound 561] | 90 | 90 | 70 | 90 | 0 | 40 | 80 | 90 | 80 | 80 | 90 | 90 | 90 | 80 | 60 | 60 | 70 | 70 | 40 | 70 | Plant response rating, Barnyardgrass [7, 16]: 90; Plant response rating, Kochia (Kochia (Kochia scoparia) [8]; [16]): 70; Plant response rating, Galium [9, 16]: 60; Plant response rating, Ryegrass, Italian [10, 16]: 20; Plant response rating, Pigweed [11, 16]: 60; Plant response rating, Wheat [12, 16]: 30; Plant response rating, Ragweed [13, 16]: 20; Plant response rating, Blackgrass [14, 16]: 50; Plant response rating, Corn (corn (Zea mays); [16]): 10; Plant response rating, Corn (corn (Zea mays); [17]): 60; Plant response rating, Foxtail, Giant [15, 16]: 90; Plant response rating, Foxtail, Giant [15, 17]: 90
Cc1ccc(C2CN(C)C(=O)C2C(=O)Nc2ccc(F)cc2F)c(F)c1 (stereo not shown) [Compound 559] | 90 | 100 | 60 | 80 | 0 | 50 | 20 | 50 | 0 | 20 | 90 | 100 | 100 | 70 | 60 | 30 | 0 | 50 | 0 | 60 | Plant response rating, Barnyardgrass [7, 16]: 90; Plant response rating, Kochia (Kochia (Kochia scoparia) [8]; [16]): 30; Plant response rating, Galium [9, 16]: 50; Plant response rating, Ryegrass, Italian [10, 16]: 0; Plant response rating, Pigweed [11, 16]: 0; Plant response rating, Wheat [12, 16]: 0; Plant response rating, Ragweed [13, 16]: 0; Plant response rating, Blackgrass [14, 16]: 20; Plant response rating, Corn (corn (Zea mays); [16]): 0; Plant response rating, Corn (corn (Zea mays); [17]): 30; Plant response rating, Foxtail, Giant [15, 16]: 90; Plant response rating, Foxtail, Giant [15, 17]: 90
CN1CC(c2ccc(Br)cc2)C(C(=O)Nc2ccccc2F)C1=O (stereo not shown) [Compound 563] | 90 | 100 | 70 | 80 | 0 | 0 | 70 | 80 | 50 | 60 | 90 | 100 | 90 | 80 | 70 | 40 | 40 | 40 | 50 | 50 | Plant response rating, Barnyardgrass [7, 16]: 90; Plant response rating, Kochia (Kochia (Kochia scoparia) [8]; [16]): 70; Plant response rating, Galium [9, 16]: 70; Plant response rating, Ryegrass, Italian [10, 16]: 40; Plant response rating, Pigweed [11, 16]: 0; Plant response rating, Wheat [12, 16]: 20; Plant response rating, Ragweed [13, 16]: 0; Plant response rating, Blackgrass [14, 16]: 40; Plant response rating, Corn (corn (Zea mays); [16]): 20; Plant response rating, Corn (corn (Zea mays); [17]): 50; Plant response rating, Foxtail, Giant [15, 16]: 90; Plant response rating, Foxtail, Giant [15, 17]: 90
